Where two headings read alike, the source gives them in different places. {C11P} = undecylphosphate group; {Acr} = acridine group
Experiments:
[1] = test system: HSV-1 (strain CI); format: in vivo, mice
[2] = test system: HSV-1 virus (strain L2); format: cell-based, Herpes Simplex Virus 1; settings: Vero cells, 24 hours
[3] = test system: HSV-1; format: cell-based, Herpes Simplex Virus 1; settings: BHK cells, oligonucleotide 3.0 μM

Free Anti-HSV: CGTTCCTCCTGU, 5′ undecylphosphate and 3′ acridine modified (5' {C11P}, 3' {Acr}, sugars by position and backbone not given here)
Animals Survived/No. of Animals in group, Exp. 1 ([1]; mouse, in vivo, iv): 1/10 | Animals Survived/No. of Animals in group, Exp. 2 ([1]; mouse, in vivo, iv): 1/10 | Animals Survived/No. of Animals in group, Exp. 3 ([1]; mouse, in vivo, iv): 0/10 | % Survival ([1]; over Exp. 1-3): 7.0% | HSV-1 Infectious Titre (CPE50/ml) (n = 7) ([2]; oligo conc. 0.2 μM): 0.9 (±0.4) × 10^5 CPE50/ml | HSV-1 Infectious Titre (CPE50/ml) (n = 7) ([2]; oligo conc. 1.0 μM): 2.3 (±0.7) × 10^3 CPE50/ml | HSV-1 Infectious Titre (CPE50/ml) (n = 7) ([2]; oligo conc. 5.0 μM): 1.6 (±0.4) × 10^2 CPE50/ml | HSV-1 Infectious Titre (CPE50/ml) (n = 7) [3]: 50 (±14) × 10^2 CPE50/ml

Source: patent US7256180B2 (priority 2000, dated 2007)
